The results in this text go back to paper PMC4672351, “Drug-Drug Interaction Potentials of Tyrosine Kinase Inhibitors via Inhibition of UDP-Glucuronosyltransferases” (Scientific Reports, 2015).

One data set addresses T1, UGT1A6 (Homo sapiens, UniProt P19224).
T1 construct: purchased BD Gentest (Woburn, MA); host or cells: baculovirus-infected insect cells
T1 sequence (P19224 27-532): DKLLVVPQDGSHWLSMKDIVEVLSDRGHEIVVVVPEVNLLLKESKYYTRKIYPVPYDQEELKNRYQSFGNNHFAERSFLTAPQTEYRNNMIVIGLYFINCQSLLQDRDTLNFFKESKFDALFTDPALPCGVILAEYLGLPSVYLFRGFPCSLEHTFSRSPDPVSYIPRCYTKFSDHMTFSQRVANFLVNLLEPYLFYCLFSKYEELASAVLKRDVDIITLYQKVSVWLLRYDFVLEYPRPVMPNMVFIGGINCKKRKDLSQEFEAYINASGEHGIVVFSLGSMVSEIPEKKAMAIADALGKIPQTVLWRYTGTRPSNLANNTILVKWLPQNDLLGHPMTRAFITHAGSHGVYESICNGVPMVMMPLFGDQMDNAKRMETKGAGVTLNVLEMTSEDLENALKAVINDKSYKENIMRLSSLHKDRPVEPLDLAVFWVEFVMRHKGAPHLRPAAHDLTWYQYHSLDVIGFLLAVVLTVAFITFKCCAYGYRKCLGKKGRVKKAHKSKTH
Nature of the data set: Inhibition of 4-MU glucuronidation by recombinant UGT1A6. The conditions noted are these: recombinant UGT1A6, pH 7.4, probe 4-MU, 100 μM inhibitor, 4-MU substrate, positive control diclofenac, read-out: Remaining activities (%) of UGT1A6. In kind it is in vitro ADME.

The next data set addresses T2, UGT1A4 (Homo sapiens, UniProt P22310).
T2 sequence (P22310 29-534): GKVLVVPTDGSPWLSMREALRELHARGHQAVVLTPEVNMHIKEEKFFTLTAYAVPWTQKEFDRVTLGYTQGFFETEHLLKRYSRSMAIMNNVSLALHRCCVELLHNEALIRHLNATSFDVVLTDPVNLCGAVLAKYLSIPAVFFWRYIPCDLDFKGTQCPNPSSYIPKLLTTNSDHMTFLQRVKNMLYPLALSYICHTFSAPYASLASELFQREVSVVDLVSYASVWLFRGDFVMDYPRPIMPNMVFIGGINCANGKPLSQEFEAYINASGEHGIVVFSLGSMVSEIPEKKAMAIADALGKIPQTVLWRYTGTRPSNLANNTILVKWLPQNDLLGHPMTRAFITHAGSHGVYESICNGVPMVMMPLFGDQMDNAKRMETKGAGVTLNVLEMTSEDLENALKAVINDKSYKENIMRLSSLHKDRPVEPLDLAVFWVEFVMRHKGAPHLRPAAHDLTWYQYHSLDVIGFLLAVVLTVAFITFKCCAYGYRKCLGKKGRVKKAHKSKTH
Nature of the data set: Inhibition of TFP glucuronidation by recombinant UGT1A4. The conditions noted are these: for activity at 30 min, 100 µM: human.

In another data set the target is T3, UGT1A1 (Homo sapiens, UniProt P22309).
T3 sequence (P22309 26-533): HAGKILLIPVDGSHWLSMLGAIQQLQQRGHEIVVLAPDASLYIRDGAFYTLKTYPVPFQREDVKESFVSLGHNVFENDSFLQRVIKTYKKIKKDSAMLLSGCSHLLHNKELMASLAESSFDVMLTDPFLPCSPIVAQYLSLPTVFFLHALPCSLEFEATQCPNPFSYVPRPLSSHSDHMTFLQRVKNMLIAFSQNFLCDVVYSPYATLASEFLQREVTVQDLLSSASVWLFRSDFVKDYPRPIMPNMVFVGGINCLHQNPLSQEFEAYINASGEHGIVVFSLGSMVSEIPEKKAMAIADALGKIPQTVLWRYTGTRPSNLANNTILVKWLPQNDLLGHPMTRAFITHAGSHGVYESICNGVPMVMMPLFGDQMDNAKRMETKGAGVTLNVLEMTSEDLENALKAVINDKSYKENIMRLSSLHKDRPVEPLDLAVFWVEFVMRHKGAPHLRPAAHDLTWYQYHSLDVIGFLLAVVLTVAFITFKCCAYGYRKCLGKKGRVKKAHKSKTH
Nature of the data set: Inhibition of 4-MU glucuronidation by recombinant UGT1A1. The conditions noted are these: for activity at 120 min, 100 µM: human, recombinant UGT1A1, pH 7.4, probe 4-MU.

For another data set, the target named is T4, UGT1A8 (Homo sapiens, UniProt Q9HAW9).
T4 sequence (Q9HAW9 26-530): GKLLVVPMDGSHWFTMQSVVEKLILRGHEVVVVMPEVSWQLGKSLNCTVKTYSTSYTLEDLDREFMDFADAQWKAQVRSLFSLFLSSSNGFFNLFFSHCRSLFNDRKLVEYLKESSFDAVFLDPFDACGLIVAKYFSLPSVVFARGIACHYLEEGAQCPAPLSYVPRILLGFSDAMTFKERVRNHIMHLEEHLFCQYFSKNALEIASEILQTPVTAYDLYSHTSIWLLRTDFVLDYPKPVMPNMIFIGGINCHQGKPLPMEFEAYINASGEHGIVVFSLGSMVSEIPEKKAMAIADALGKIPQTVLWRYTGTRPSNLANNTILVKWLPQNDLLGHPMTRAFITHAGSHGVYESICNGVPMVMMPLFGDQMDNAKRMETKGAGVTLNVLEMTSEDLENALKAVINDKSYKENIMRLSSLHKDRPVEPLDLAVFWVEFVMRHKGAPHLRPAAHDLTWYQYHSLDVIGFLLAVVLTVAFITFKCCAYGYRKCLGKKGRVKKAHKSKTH
Nature of the data set: Inhibition of 4-MU glucuronidation by recombinant UGT1A8. The conditions noted are these: recombinant UGT1A8, pH 7.4, probe 4-MU.

Another data set deals with T5, UGT2B15 (Homo sapiens, UniProt P54855).
T5 sequence (P54855 24-530): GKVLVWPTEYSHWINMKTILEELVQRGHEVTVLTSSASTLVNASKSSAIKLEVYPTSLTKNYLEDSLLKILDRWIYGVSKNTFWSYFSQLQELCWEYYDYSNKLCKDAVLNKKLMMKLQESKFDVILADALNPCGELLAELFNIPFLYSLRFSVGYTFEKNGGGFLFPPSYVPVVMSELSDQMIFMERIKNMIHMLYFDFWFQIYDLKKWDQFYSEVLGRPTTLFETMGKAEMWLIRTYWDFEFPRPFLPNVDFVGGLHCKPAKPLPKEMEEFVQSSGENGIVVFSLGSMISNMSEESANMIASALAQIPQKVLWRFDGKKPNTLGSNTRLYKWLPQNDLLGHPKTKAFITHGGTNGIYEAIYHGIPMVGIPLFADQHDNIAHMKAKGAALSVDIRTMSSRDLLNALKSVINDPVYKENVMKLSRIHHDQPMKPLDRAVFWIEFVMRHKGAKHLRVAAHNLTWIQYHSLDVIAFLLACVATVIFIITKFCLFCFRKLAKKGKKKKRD
Nature of the data set: Inhibition of 4-MU glucuronidation by recombinant UGT2B15. As to conditions: recombinant UGT2B15, pH 7.4, probe 4-MU.

[1] abbreviates: recombinant UGT1A4, pH 7.4, probe TFP (trifluoperazine).

`COc1cc2c(Nc3ccc(Br)cc3F)ncnc2cc1OCC1CCN(C)CC1` [Vandetanib, vandetanib]: the activity at 30 min, 100 µM at UGT1A6 turned out to be 55.1 ± 1.1%; on UGT1A4 (setting [1]) it was 62.8%; at UGT1A8, 56 ± 6.3%. Also, the figures for the activity at 120 min, 100 µM on UGT1A1 and on UGT2B15 were 48.9 ± 4.9% and 79.2 ± 1.4%, respectively.
For the compound `CS(=O)(=O)CCNCc1ccc(-c2ccc3ncnc(Nc4ccc(OCc5cccc(F)c5)c(Cl)c4)c3c2)o1` [Lapatinib, lapatinib], the activity at 30 min, 100 µM came out at 88.4 ± 5.9% on UGT1A6, 40.7 ± 1.9% at UGT1A4 (setting [1]) and 73.5 ± 10.6% at UGT1A8. Further, at UGT1A4, the IC50 was found to be 3.8 ± 0.7 µM. In addition, the Ki at UGT1A4 is 36.4 ± 5 µM. Further, on UGT1A4 (TFP substrate), the “inhibition type, UGT1A4” value is reported as “mixed”. Further, the “inhibition type, UGT1A1” value at UGT1A1 (4-MU substrate) is recorded as “competitive”. In addition, the results for the activity at 120 min, 100 µM on UGT1A1 and at UGT2B15 were 30.8 ± 11% and 110 ± 3.1%, respectively.
Turning to `CNC(=O)c1ccccc1Sc1ccc2c(/C=C/c3ccccn3)n[nH]c2c1` [Axitinib, axitinib], the activity at 30 min, 100 µM at UGT1A6 came to 85.8 ± 3.5%; at UGT1A4 (pH 7.4), 14.9 ± 1.8%; on UGT1A8 it was 54.6 ± 2.4%. The IC50 at UGT1A4 is 14.2 ± 3.2 µM. Further, the activity at 120 min, 100 µM is 56.7 ± 3.4% at UGT1A1 and 49.3 ± 5.2% on UGT2B15.

The term IC50 denotes the concentration that inhibits the measured activity by half. By Ki is commonly meant a dissociation constant, usually derived from enzyme kinetics or from competition with a known ligand.
